Laboratory results published in ChEMBL document CHEMBL4622872, “Discovery of DS-1971a, a Potent, Selective NaV1.7 Inhibitor” (J Med Chem, 2020).
Converted amounts (≈) assume the structure as drawn.

Key:
[1] = Distribution coefficient, log D of the compound in 1-octanol and PBS buffer at pH 7.4 measured after 30 mins by LC-MS analysis; type: physicochemical; conditions: 1-octanol/PBS buffer
[2] = Aqueous thermodynamic solubility of the compound at pH 6.8 measured after 4 hrs by UV-HPLC analysis; type: physicochemical; conditions: buffer, pH 6.8; read-out: Therm_solubility
[3] = Stability of the compound in mouse liver microsomes assessed as parent compound remaining measured after 0.5 hrs; type: ADME, Microsome; conditions: for remaining at 0.5 h: mouse liver microsomes, read-out: Stability

Row | logD at 0.5 h [1] | solubility thermodynamic at 4 h [2] | Stability ([3]; microsomes, 0.5 h) | remaining at 0.5 h [3] | SMILES
1 | 0.8 | > 2000 µM | 70% | – | Cn1nccc1[C@H]1CCCC[C@@H]1Oc1cc(F)c(S(=O)(=O)Nc2ccncn2)cc1Cl (racemic) [DS-1971]
2 | 0.9 | 1800 µM (≈ 802 µg/mL) | – | 75% | Cc1cc(S(=O)(=O)Nc2ccncn2)c(F)cc1O[C@H]1CCCC[C@@H]1c1ccnn1C (racemic)
3 | 0.6 | 1040 µM (≈ 482 µg/mL) | – | 97% | Cn1nccc1[C@H]1CCCCC[C@@H]1Oc1cc(F)c(S(=O)(=O)Nc2ccncn2)c(F)c1 (racemic)
4 | 0.3 | 740 µM (≈ 322 µg/mL) | – | 100% | Cn1nccc1[C@H]1CCC[C@@H]1Oc1cc(F)c(S(=O)(=O)Nc2ccncn2)cc1F (racemic)
5 | 0.7 | > 2000 µM | – | 75% | Cn1nccc1[C@H]1CCCC[C@@H]1Oc1cc(F)c(S(=O)(=O)Nc2ncns2)cc1F (racemic)
6 | 0.9 | 1200 µM (≈ 518 µg/mL) | – | 87% | Cc1cc(S(=O)(=O)Nc2ccncn2)c(F)cc1O[C@H]1CCC[C@@H]1c1ccnn1C (racemic)
7 | 1.8 | 660 µM (≈ 300 µg/mL) | – | 28% | Cn1nccc1[C@H]1CCCC[C@@H]1Oc1cc(F)c(S(=O)(=O)Nc2cscn2)cc1F (racemic)
8 | 0.6 | > 1900 µM | – | 91% | Cn1nccc1[C@H]1CCC[C@@H]1Oc1cc(F)c(S(=O)(=O)Nc2ncns2)cc1F (racemic)
